BindingDB's records for doi:10.1002/cbic.201200521 (University of Cambridge, 2013)

Target: DNA repair and recombination protein RadA (Pyrococcus furiosus (strain ATCC 43587 / DSM 3638 / JCM 8422 / Vc1), UniProt O74036)
Experiment: Thermal Denaturation Assay
Experimental: The thermal-shift denaturation assay was performed on an iCycler iQ Real Time Detection System (BioRad) in 96-well iCycler iQ PCR plates sealed with optically clear lids.

| SMILES | Kd [mM] |
| --- | --- |
| Oc1ccc2[nH]ccc2c1 | 2.1 |
| c1ccc2[nH]ncc2c1 [Indazole, 5] | 1 |
| Cc1ccc2[nH]ccc2c1 [Indole, 2] | 2.1 |
| COC(=O)[C@@H](N)Cc1c[nH]c2ccccc12 [L-Methyl ester tryptophan, 8] | 0.57 |
